pIC50: −log10 of the molar value. “And” between values parts separate entries of the source, which are not always exact repeats. Equal entries are not always repeated.

Assay [1] has as its target MAPK14 (human) (UniProt Q16539). The experiment in a line: Inhibition of MAPK14 Kinase Activity by PHAS-I Assay. The settings on record: for inhibition: concentration not given here.
For assay [2] the target is unchanged. The experiment in a line: Inhibition of LPS Stimulated TNF Production by U937 Cells. The settings on record: for inhibition: concentration not given here.

Sequence of MAPK14 (human) (Q16539 whole entry, looked up): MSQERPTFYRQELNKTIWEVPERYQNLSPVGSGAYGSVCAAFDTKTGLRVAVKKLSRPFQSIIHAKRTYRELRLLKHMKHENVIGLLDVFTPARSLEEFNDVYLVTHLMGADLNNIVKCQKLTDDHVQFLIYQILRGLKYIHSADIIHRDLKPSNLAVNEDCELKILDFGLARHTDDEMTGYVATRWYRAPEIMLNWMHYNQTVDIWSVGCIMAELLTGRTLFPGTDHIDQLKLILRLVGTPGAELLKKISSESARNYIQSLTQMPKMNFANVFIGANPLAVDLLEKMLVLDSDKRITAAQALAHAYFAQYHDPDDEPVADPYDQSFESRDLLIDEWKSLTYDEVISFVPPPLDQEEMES

Regarding `CC1(C)[C@H]2CC[C@@]1(CCS(=O)(=O)NCc1[nH]nc(-c3ccc(F)cc3)c1-c1ccncc1)C(=O)C2`, in assay [1], the pIC50 is > 7.00. The inhibition in assay [2] worked out at 11%.

`COC(=O)[C@H](CSCc1ccccc1)NC(=O)Cn1nc(-c2ccc(F)cc2)c(-c2ccncc2)c1C`: the inhibition in assay [1] was 84%. Also, in assay [2], the pIC50 is < 5.00.

In turn, `O=C(NCCCc1[nH]nc(-c2ccc(F)cc2)c1-c1ccncc1)[C@@H]1CCCN1` showed an inhibition in assay [1] of 85%. The molecule further displayed an IC100 in assay [2] of 0.36 µM.

As for `Cc1c(-c2ccncc2)c(-c2ccc(F)cc2)nn1CC(=O)NC1CCCC1`, the inhibition in assay [1] was 58%; in assay [2] it was 36%.

Molecule `O=C(NCc1[nH]nc(-c2ccc(F)cc2)c1-c1ccncc1)Nc1ccccc1F` came in with an inhibition in assay [1] of 23%. Further, the negative-log IC50 (pIC50) in assay [2] was 5.69.

For the molecule `CC(C)c1ccccc1NC(=O)NCCc1[nH]nc(-c2ccc(F)cc2)c1-c1ccncc1`, the results for the inhibition in assay [1] and in assay [2] were 80% and 29%, respectively.

Take `O=C(NCCc1[nH]nc(-c2ccc(F)cc2)c1-c1ccncc1)C1CCC1`: the inhibition in assay [1] worked out at 72%; in assay [2] it was 65%.

As to `COc1cc(OC)c(NC(=O)NCc2[nH]nc(-c3ccc(F)cc3)c2-c2ccncc2)cc1O`, the results for the inhibition in assay [1] and in assay [2] were 4% and 14%, respectively.

Consider `COc1cccc(C(=O)NCCCc2[nH]nc(-c3ccc(F)cc3)c2-c2ccncc2)c1`, for which, in assay [1], the inhibition worked out at 71%. The negative-log IC50 (pIC50) in assay [2] was 6.10.

Consider `CCOC(=O)C(NC(=O)NCCc1[nH]nc(-c2ccc(F)cc2)c1-c1ccncc1)C(C)C` (configuration not stated), for which the inhibition in assay [1] came out at 79%; in assay [2], 36%.

For `Cc1c(-c2ccncc2)c(-c2ccc(F)cc2)nn1CC(=O)Nc1ccc(CCC(=O)c2cccnc2)cc1`, the inhibition was determined as 94% in assay [1] and 15% in assay [2].

As to `COc1ccc(Br)cc1S(=O)(=O)N[C@H](C)c1[nH]nc(-c2ccc(F)cc2)c1-c1ccncc1`, the negative logarithm of the IC50 (pIC50) in assay [1] was 7.62. This molecule also gave an inhibition in assay [2] of 86%.

Turning to `C[C@H](NC(=O)NCCc1[nH]nc(-c2ccc(F)cc2)c1-c1ccncc1)c1ccccc1`, the inhibition in assay [1] is 79%; in assay [2] it was 12%.

For `CCOC(=O)CNC(=O)NCc1[nH]nc(-c2ccc(F)cc2)c1-c1ccncc1`, the inhibition in assay [1] came to 70%; in assay [2], 27%.

With `CC1(C)[C@@H]2CC[C@]1(CS(=O)(=O)NCCc1[nH]nc(-c3ccc(F)cc3)c1-c1ccncc1)C(=O)C2`, the pIC50 in assay [1] is 6.80. The inhibition in assay [2] came to 44%.

With `O=C(NCc1[nH]nc(-c2ccc(F)cc2)c1-c1ccncc1)c1ccc(OC(F)(F)F)cc1`, the inhibition in assay [1] was 69%; in assay [2], 45%.

As for `Cn1cc(-c2ccncc2)c(-c2ccc(F)cc2)n1`, the pIC50 is 6.15 in assay [1]; 7.01 and 6.89 in assay [2].

For the molecule `O=C(NCCc1[nH]nc(-c2ccc(F)cc2)c1-c1ccncc1)Nc1ccc(Br)cc1`, the results for the inhibition in assay [1] and in assay [2] were 51% and 29%, respectively.

Take `Cc1[nH]nc(-c2ccc3c(c2)CCCO3)c1-c1ccncc1`: the pIC50 was 6.10 in assay [1] and 6.68 in assay [2].

Turning to `O=C(NCCc1[nH]nc(-c2ccc(F)cc2)c1-c1ccncc1)c1ccccc1`, the inhibition in assay [1] was determined as 74%; in assay [2], 29%.

As to `O=S(=O)(NCCCc1[nH]nc(-c2ccc(F)cc2)c1-c1ccncc1)c1ccccc1`, the inhibition turned out to be 74% in assay [1] and 57% in assay [2].

`Cc1ccc(S(=O)(=O)NCCc2[nH]nc(-c3ccc(F)cc3)c2-c2ccncc2)cc1`: the inhibition in assay [1] was 58%; in assay [2], 18%.

Take `COc1ccc(Cl)cc1S(=O)(=O)NCCCc1[nH]nc(-c2ccc(F)cc2)c1-c1ccncc1`: the pIC50 in assay [1] is > 7.00. In assay [2], this molecule displayed an inhibition of 64%.

The molecule `O=C(N[C@H](Cc1ccccc1)c1[nH]nc(-c2ccc(F)cc2)c1-c1ccncc1)c1ccccc1I` had a negative-log IC50 (pIC50) in assay [1] of 6.27. Also, the inhibition in assay [2] is 34%.

For the molecule `O=S(=O)(NCCc1[nH]nc(-c2ccc(F)cc2)c1-c1ccncc1)c1ccc(F)cc1`, the inhibition stood at 85% in assay [1] and 7% in assay [2].

Regarding `COc1cccc(C(=O)NCCc2[nH]nc(-c3ccc(F)cc3)c2-c2ccncc2)c1`, the inhibition in assay [1] was 54%; in assay [2], 23%.

Regarding `COc1ccc(OC)c(NC(=O)NCCc2[nH]nc(-c3ccc(F)cc3)c2-c2ccncc2)c1`, in assay [1], the inhibition came out at 76%. The molecule further gave a pIC50 in assay [2] of 6.06.

As for `O=C(NCCc1[nH]nc(-c2ccc(F)cc2)c1-c1ccncc1)NC(=O)c1ccccc1`, the inhibition in assay [1] turned out to be 67%; in assay [2], 36%.

Consider `CCOC(=O)COc1cccc(NC(=O)Cn2nc(-c3ccc(F)cc3)c(-c3ccncc3)c2C)c1`, for which the inhibition is 83% in assay [1] and 36% in assay [2].

In assay [1], `N/C(=C(\N)S(=O)(=O)NCc1[nH]nc(-c2ccc(F)cc2)c1-c1ccncc1)c1ccccc1` returned an inhibition of 89%. The molecule further showed a pIC50 in assay [2] of 5.56.

For the molecule `C[C@@H](NS(=O)(=O)c1cc(Cl)cc(Cl)c1O)c1[nH]nc(-c2ccc(F)cc2)c1-c1ccncc1`, the pIC50 in assay [1] is 5.95. The molecule further displayed an inhibition in assay [2] of 71%.
